# Measurements: patent US6924285B2, “Bicyclic heterocyclic compounds, pharmaceutical compositions containing these compounds, their use and process for preparing them” (Boehringer Ingelheim Pharma GmbH & Co., priority 2002, dated 2005)
# Tested on: not given
# Test: not given
# Conditions: not given
row,melting point,Compound
1,251 °C,COc1cc2ncnc(Nc3ccc(F)c(Cl)c3)c2cc1O[C@H]1CCNC1.Cl.Cl
2,184 °C,"COc1cc2ncnc(Nc3ccc(F)c(Cl)c3)c2cc1O[C@H]1CCOC1 [Example 1, 4-[(3-chloro-4-fluoro-phenyl)amino]-6-((S)-tetrahydrofuran-3-yloxy)-7-methoxy-quinazoline]"
3,232 °C,"COc1cc2ncnc(Nc3ccc(F)c(Cl)c3)c2cc1O[C@H]1CC[C@@H](N)CC1 [Example 2, 4-[(3-chloro-4-fluoro-phenyl)amino]-6-(cis-4-amino-cyclohexan-1-yloxy)-7-methoxy-quinazoline x Trifluoroacetic Acid]"
4,205 °C,"Fc1ccc(Nc2ncnc3cc(OCCCN4CCOCC4)c(OC4CCOCC4)cc23)cc1Cl [Example 7, 4-[(3-chloro-4-fluoro-phenyl)amino]-6-(tetrahydropyran-4-yloxy)-7-[3-(morpholin-4-yl)-propyloxy]-quinazoline]"
5,233 °C,"CN(C)C(=O)CN1CCC(Oc2ccc3ncnc(Nc4ccc(F)c(Cl)c4)c3c2)CC1 [Example 10, 4-[(3-chloro-4-fluoro-phenyl)amino]-6-{1-[(dimethylamino)carbonylmethyl]-piperidin-4-yloxy}-quinazoline]"
6,171 °C,"COc1cc2ncnc(Nc3ccc(F)c(Cl)c3)c2cc1OC1CCN(C(=O)N2CCCOCC2)CC1 [Example 12, 4-[(3-chloro-4-fluoro-phenyl)amino]-6-{1-[([1,4]oxazepan-4-yl)carbonyl)-piperidin-4-yloxy}-7-methoxy-quinazoline]"

# Target: T1, human EGF-receptor kinase (Homo sapiens, UniProt P00533)
# T1 construct: GST; made in house; host or cells: Sf9 insect cells (baculovirus)
# Test: Inhibition of human EGF-receptor kinase (enzyme assay, ELISA read-out)
# Format: biochemical
# Conditions: cytoplasmic tyrosine kinase domain as GST fusion protein, substrate pEY/bio-pEY, 30 minutes at ambient temperature
# Method: The inhibition of human EGF-receptor kinase was determined using the cytoplasmic tyrosine kinase domain (methionine 664 to alanine 1186 based on the sequence published in Nature 309 (1984), 418). For this the protein was expressed in Sf9 insect cells as GST fusion protein using the Baculovirus expression system.
# The enzyme activity was measured in the presence or absence of the test compounds in serial dilutions. The polymer pEY (4:1) obtained from SIGMA was used as the substrate. Biotinylated pEY (bio-pEY) was added as the tracer substrate. 100 μl of reaction solution contained 10 μl of the inhibitor in 50% DMSO, 20 μl of the substrate solution (200 mM HEPES pH 7.4, 50 mM magnesium acetate, 2.5 mg/ml poly(EY), 5 μg/ml bio-pEY) and 20 μl of enzyme preparation. The enzyme reaction was started by the addition of 50 μl of a 100 μM ATP solution in 10 mM of magnesium chloride. The dilution of the enzyme preparation was adjusted so that the incorporation of phosphate in the bio-pEY was linear in terms of time and quantity of enzyme. The enzyme preparation was diluted in 20 mM HEPES pH 7.4, 1 mM EDTA, 130 mM common salt, 0.05% Triton X-100, 1 mM DTT and 10% glycerol.
# The enzyme assays were carried out at ambient temperature over a period of 30 minutes and ended by the addition of 50 μl of a stopping solution (250 mM EDTA in 20 mM HEPES pH 7.4). 100 μl were placed on a streptavidine-coated microtitre plate and incubated for 60 minutes at ambient temperature. Then the plate was washed with 200 μl of a wash solution (50 mM Tris, 0.05% Tween 20). After the addition of 100 μl of an HRPO-labelled anti-PY antibody (PY20H Anti-PTyr:HRP made by Transduction Laboratories, 250 ng/ml) the preparation was incubated for 60 minutes. Then the microtitre plate was washed three times with 200 μl of wash solution. The samples were then combined with 100 μl of a TMB-peroxidase solution (A:B=1:1, Kirkegaard Perry Laboratories). After 10 minutes the reaction was stopped. The extinction was measured at OD450 nm with an ELISA reader. All the results were measured three times.
# The data were adapted by iterative calculation using an analytical pogramme for sigmoidal curves (Graph Pad Prism Version 3.0) with a variable Hill pitch. […] The active substance concentration which inhibits the activity of EGF receptor kinase by 50% (IC50) was derived from the curves.
# T1 sequence (P00533 688-1210): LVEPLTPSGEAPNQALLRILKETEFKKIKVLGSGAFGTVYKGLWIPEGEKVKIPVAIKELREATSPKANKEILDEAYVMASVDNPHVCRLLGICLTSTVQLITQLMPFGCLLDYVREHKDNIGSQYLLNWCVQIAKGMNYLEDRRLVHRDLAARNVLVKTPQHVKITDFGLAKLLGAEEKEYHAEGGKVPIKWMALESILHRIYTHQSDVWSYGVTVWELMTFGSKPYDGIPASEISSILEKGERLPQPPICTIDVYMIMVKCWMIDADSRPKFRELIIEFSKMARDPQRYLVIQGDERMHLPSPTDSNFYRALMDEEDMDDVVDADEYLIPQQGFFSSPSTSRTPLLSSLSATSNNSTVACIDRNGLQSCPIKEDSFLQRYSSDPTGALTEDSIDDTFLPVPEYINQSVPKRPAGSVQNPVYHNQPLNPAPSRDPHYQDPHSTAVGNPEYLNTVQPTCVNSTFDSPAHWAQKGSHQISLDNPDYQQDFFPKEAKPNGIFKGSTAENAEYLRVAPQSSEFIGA
row,IC50,Compound
1,0.12 nM,"COc1cc2ncnc(Nc3ccc(F)c(Cl)c3)c2cc1OC1CCOCC1 [1(1), 4-[(3-chloro-4-fluoro-phenyl)amino]-6-(tetrahydropyran-4-yloxy)-7-methoxy-quinazoline]"
2,2 nM,"COc1cc2ncnc(Nc3ccc(F)c(Cl)c3)c2cc1O[C@H]1CC[C@@H](NC(=O)OC(C)(C)C)CC1 [1(2), 4-[(3-chloro-4-fluoro-phenyl)amino]-6-[cis-4-(tert.-butyloxycarbonylamino)-cyclohexan-1-yloxy]-7-methoxy-quinazoline]"
3,1.1 nM,"COc1cc2ncnc(Nc3ccc(F)c(Cl)c3)c2cc1O[C@@H]1CCOC1 [1(3), 4-[(3-chloro-4-fluoro-phenyl)amino]-6-((R)-tetrahydrofuran-3-yloxy)-7-methoxy-quinazoline]"
4,0.6 nM,"COc1cc2ncnc(Nc3ccc(F)c(Cl)c3)c2cc1O[C@H]1CC[C@H](NC(=O)OC(C)(C)C)CC1 [1(4), 4-[(3-chloro-4-fluoro-phenyl)amino]-6-[trans-4-(tert.-butyloxycarbonylamino)-cyclohexan-1-yloxy]-7-methoxy-quinazoline]"
5,0.6 nM,"COc1cc2ncnc(Nc3ccc(F)c(Cl)c3)c2cc1OC1CCN(C(=O)OC(C)(C)C)CC1 [1(5), 4-[(3-chloro-4-fluoro-phenyl)amino]-6-[1-(tert.-butyloxycarbonyl)-piperidin-4-yloxy]-7-methoxy-quinazoline]"
6,0.69 nM,"COc1cc2ncnc(Nc3ccc(F)c(Cl)c3)c2cc1OC1CCCOC1 (stereo not drawn) [1(6), 4-[(3-chloro-4-fluoro-phenyl)amino]-6-(tetrahydropyran-3-yloxy)-7-methoxy-quinazoline]"
7,0.16 nM,"COc1cc2ncnc(Nc3ccc(F)c(Cl)c3)c2cc1O[C@H]1CC[C@H](N)CC1 [2(1), 4-[(3-chloro-4-fluoro-phenyl)amino]-6-(trans-4-amino-cyclohexan-1-yloxy)-7-methoxy-quinazoline]"
8,0.14 nM,"COc1cc2ncnc(Nc3ccc(F)c(Cl)c3)c2cc1O[C@H]1CC[C@H](NS(C)(=O)=O)CC1 [3(1), 4-[(3-chloro-4-fluoro-phenyl)amino]-6-(trans-4-methanesulphonylamino-cyclohexan-1-yloxy)-7-methoxy-quinazoline]"
9,0.22 nM,"COc1cc2ncnc(Nc3ccc(F)c(Cl)c3)c2cc1OC1CCN(S(C)(=O)=O)CC1 [3(2), 4-[(3-chloro-4-fluoro-phenyl)amino]-6-(1-methanesulphonyl-piperidin-4-yloxy)-7-methoxy-quinazoline]"
10,0.7 nM,"COc1cc2ncnc(Nc3ccc(F)c(Cl)c3)c2cc1OC1CCN(C(=O)N2CCOCC2)CC1 [3(7), 4-[(3-chloro-4-fluoro-phenyl)amino]-6-{1-[(morpholin-4-yl)carbonyl]-piperidin-4-yloxy}-7-methoxy-quinazoline]"
11,0.6 nM,"COCC(=O)N1CCC(Oc2cc3c(Nc4ccc(F)c(Cl)c4)ncnc3cc2OC)CC1 [3(8), 4-[(3-chloro-4-fluoro-phenyl)amino]-6-{1-[(methoxymethyl)carbonyl]-piperidin-4-yloxy}-7-methoxy-quinazoline]"
12,0.2 nM,"COc1cc2ncnc(Nc3ccc(F)c(Cl)c3)c2cc1OC1CCN(C#N)CC1 [3(9), 4-[(3-chloro-4-fluoro-phenyl)amino]-6-(1-cyano-piperidin-4-yloxy)-7-methoxy-quinazoline]"
13,0.1 nM,"COc1cc2ncnc(Nc3ccc(F)c(Cl)c3)c2cc1OC1CCN(S(=O)(=O)N2CCOCC2)CC1 [3(11), 4-[(3-chloro-4-fluoro-phenyl)amino]-6-{1-[(morpholin-4-yl)sulphonyl]-piperidin-4-yloxy}-7-methoxy-quinazoline]"
14,1 nM,"COc1cc2ncnc(Nc3ccc(F)c(Cl)c3)c2cc1OC1CCN(CCNC(C)=O)CC1 [3(15), 4-[(3-chloro-4-fluoro-phenyl)amino]-6-[1-(2-acetylamino-ethyl)-piperidin-4-yloxy]-7-methoxy-quinazoline]"
15,1 nM,"COc1cc2ncnc(Nc3ccc(F)c(Cl)c3)c2cc1O[C@H]1CC[C@H](NS(=O)(=O)N(C)C)CC1 [3(16), 4-[(3-chloro-4-fluoro-phenyl)amino]-6-{trans-4-[(dimethylamino)sulphonylamino]-cyclohexan-1-yloxy}-7-methoxy-quinazoline]"
16,0.3 nM,"COc1cc2ncnc(Nc3ccc(F)c(Cl)c3)c2cc1O[C@H]1CC[C@H](NC(=O)N2CCOCC2)CC1 [3(17), 4-[(3-chloro-4-fluoro-phenyl)amino]-6-{trans-4-[(morpholin-4-yl)carbonylamino]-cyclohexan-1-yloxy}-7-methoxy-quinazoline]"
17,0.4 nM,"COc1cc2ncnc(Nc3ccc(F)c(Cl)c3)c2cc1O[C@H]1CC[C@H](NS(=O)(=O)N2CCOCC2)CC1 [3(18), 4-[(3-chloro-4-fluoro-phenyl)amino]-6-{trans-4-[(morpholin-4-yl)sulphonylamino]-cyclohexan-1-yloxy}-7-methoxy-quinazoline]"
18,1 nM,"CC(=O)NCCOc1cc2ncnc(Nc3ccc(F)c(Cl)c3)c2cc1OC1CCOCC1 [3(20), 4-[(3-chloro-4-fluoro-phenyl)amino]-6-(tetrahydropyran-4-yloxy)-7-(2-acetylamino-ethoxy)-quinazoline]"
19,0.4 nM,"CS(=O)(=O)NCCOc1cc2ncnc(Nc3ccc(F)c(Cl)c3)c2cc1OC1CCOCC1 [3(21), 4-[(3-chloro-4-fluoro-phenyl)amino]-6-(tetrahydropyran-4-yloxy)-7-(2-methanesulphonylamino-ethoxy)-quinazoline]"
20,0.16 nM,"COc1cc2ncnc(Nc3ccc(F)c(Cl)c3)c2cc1O[C@H]1CC[C@H](NS(=O)(=O)CCCN2CCOCC2)CC1 [4(1), 4-[(3-chloro-4-fluoro-phenyl)amino]-6-(trans-4-{[3-(morpholin-4-yl)-propyl]sulphonylamino}-cyclohexan-1-yloxy)-7-methoxy-quinazoline]"
21,1 nM,"COCCOc1cc2ncnc(Nc3ccc(F)c(Cl)c3)c2cc1OC1CCOCC1 [7(5), 4-[(3-chloro-4-fluoro-phenyl)amino]-6-(tetrahydropyran-4-yloxy)-7-(2-methoxy-ethoxy)-quinazoline]"
22,0.22 nM,"COc1cc2ncnc(Nc3ccc(F)c(Cl)c3)c2cc1OC1CCNCC1 [Example 2(2), 4-[(3-chloro-4-fluoro-phenyl)amino]-6-(piperidin-4-yloxy)-7-methoxy-quinazoline x trifluoroacetic acid]"
23,4.5 nM,"COc1cc2ncnc(Nc3ccc(F)c(Cl)c3)c2cc1O[C@H]1CC[C@@H](N)CC1 [Example 2, 4-[(3-chloro-4-fluoro-phenyl)amino]-6-(cis-4-amino-cyclohexan-1-yloxy)-7-methoxy-quinazoline x Trifluoroacetic Acid]"
24,0.41 nM,"COc1cc2ncnc(Nc3ccc(F)c(Cl)c3)c2cc1O[C@H]1CC[C@@H](NS(=O)(=O)CCCN2CCOCC2)CC1 [Example 4, 4-[(3-chloro-4-fluoro-phenyl)amino]-6-(cis-4-{[3-(morpholin-4-yl)-propyl]sulphonylamino}-cyclohexan-1-yloxy)-7-methoxy-quinazoline]"
